Data on eight compounds can be found in patent US20230137956A1, “ALPHA SUBSTITUTED STAT INHIBITORS AND COMPOSITIONS THEREOF” (JANPIX LIMITED, priority 2020, published 2023).

In one series the test system is MV4-11 cells. Briefly: MV4-11 Cell Cytotoxicity Assay. It counts as cell-based, human. The note with it: 72 h incubation, CellTiter-Blue, read-out: IC50-MV-4-11. Here is the method:
In some embodiments, the potency of the STAT5 inhibitors are evaluated by an in vitro assay such as MV4-11 Cell Cytotoxicity Assay. MV4-11 cells were grown in Iscove's Modified Dulbecco's Medium (IMDM) supplemented with 10% fetal bovine serum (FBS). 10,000 cells were plated per well in 96-well flat-bottom sterile culture plates with low-evaporation lids. After 24 h, inhibitors and a vehicle control (0.5% DMSO) were added and the cells were incubated for 72 h at 37° C. in 5% CO2. Inhibitors were examined in triplicate at a maximal concentration of 50 μM, followed by 1:2 dilutions in subsequent wells (25, 12.5, 6.25, 3.125, 1.5625, 0.78125, 0.390625, 0.195313 and 0.097656 μM). After 72 h, the wells were treated with CellTiter-Blue® (20 μL/well), and the plates were incubated using standard cell culture conditions for 1 hour. Fluorescence was measured at 560/590 nm.

A further series relates to glutathione (GSH). As to the kind of experiment: Reactivity Profiling with Glutathione (GSH). The note with it: cell culture medium (IMDM, 10% FBS) with 5 mM glutathione, 25 μM inhibitor, IMDM with 10% FBS, 0.5% DMSO, 25° C., HPLC, read-out: T1/2-GSH. The class given is in vitro ADME. The method, then: In some embodiments, metabolic stability of the compounds is evaluated according to their reactivity profiles with GSH.
3.5 μL of 5 mM stocking solution of the inhibitors in DMSO was added to 697.5 μL of Iscove's Modified Dulbecco's Medium (IMDM) supplemented with 10% FBS and antibiotic antimycotic solution, with 5 mM glutathione to afford a final concentration of 25 μM inhibitor with 0.5% DMSO. The solution was then immediately placed in the sample tray at 25° C. Sample was analyzed at pre-defined intervals, typically every 1.5 hours, for up to four injections, by HPLC, included at time zero, without further pre-treatment. For each inhibitor, its peak is integrated at different time points and compared to the time zero injection in order to obtain a percentage remaining. Half-life is calculated according to a first order reaction kinetic taking into account those time points for which remaining percentage of inhibitor is above 40%, using the formula: t½=Ln(2)/k, where k is the slope of the linear plot of Ln[Inhibitor] vs time, according to the formula: Ln[A]=Ln[A]0−kt, where [A] is the value resulting from the integration at each time point, [A]0 the value at time zero, and t the time. For each inhibitor, both replicates are averaged and the resulting t½ reported. Selective reactivity against GSH in particular is confirmed by incubation of the inhibitor in the same solution without the presence of GSH, and single analysis after a time longer than the latest time point analyzed for the samples with GSH.

Like-named read-outs stand apart in the source and are kept apart here.

Usually IC50 stands for the concentration needed to halve the response being measured. On to `CC(C)C[C@H](C(=O)N(Cc1cc(C2CC2)cc(C(C)(C)C)c1)c1ccc(C(=O)O)c(O)c1)N(Cc1ccc(Cl)cc1)S(=O)(=O)c1c(F)c(F)c(F)c(F)c1F` [Compound 1001, (R)-4-(N-(3-(tert-butyl)-5-cyclopropylbenzyl)-2-(N-(4-chlorobenzyl)-(2,3,4,5,6-pentafluorophenyl)sulfonamido)-4-methylpentanamido)-2-hydroxybenzoic acid], for which the IC50 in the series on MV4-11 cells was in the range of 1e-05 to 5 µM.

For the compound `C[C@@H](C(=O)N(Cc1cc(C2CC2)cc(C(C)(C)C)c1)c1ccc(C(=O)O)c(O)c1)N(Cc1ccc(Cl)cc1)S(=O)(=O)c1c(F)c(F)c(F)c(F)c1F` [Compound 1002, (S)-4-(N-(3-(tert-butyl)-5-cyclopropylbenzyl)-2-(N-(4-chlorobenzyl)-(2,3,4,5,6-pentafluorophenyl)sulfonamido)propanamido)-2-hydroxybenzoic acid], in the series with MV4-11 cells (Homo sapiens, MV4-11, 72 h), the half-inhibitory concentration (IC50) lay in the range of 1e-05 to 5 µM.

`CC(C)[C@@H](C(=O)N(Cc1cc(C2CC2)cc(C(C)(C)C)c1)c1ccc(C(=O)O)c(O)c1)N(Cc1ccc(Cl)cc1)S(=O)(=O)c1c(F)c(F)c(F)c(F)c1F` [Compound 1003, (S)-4-(N-(3-(tert-butyl)-5-cyclopropylbenzyl)-2-(N-(4-chlorobenzyl)-(2,3,4,5,6-pentafluorophenyl)sulfonamido)-3-methylbutanamido)-2-hydroxybenzoic acid]: in the series with MV4-11 cells (Homo sapiens, MV4-11, 72 h), the IC50 lay within 1e-05 to 5 µM.

For the compound `C[C@H](C(=O)N(Cc1cc(C2CC2)cc(C(C)(C)C)c1)c1ccc(C(=O)O)c(O)c1)N(Cc1ccc(Cl)cc1)S(=O)(=O)c1c(F)c(F)c(F)c(F)c1F` [Compound 1004, (R)-4-(N-(3-(tert-butyl)-5-cyclopropylbenzyl)-2-(N-(4-chlorobenzyl)-(2,3,4,5,6-pentafluorophenyl)sulfonamido)propanamido)-2-hydroxybenzoic acid], the concentration for half-maximal inhibition (IC50) in the series with MV4-11 cells (Homo sapiens, MV4-11, 72 h) fell in the range of 5 to 10 µM.

Regarding `CC(C)C[C@H](C(=O)N(Cc1cc(C2CC2)cc(C(C)(C)C)c1)c1ccc(C(=O)O)c(O)c1)N(Cc1ccc(Cl)cc1)S(=O)(=O)c1c(F)c(F)c(F)c(F)c1F` [Compound 1005, (R)-4-(N-(3-(tert-butyl)-5-cyclopropylbenzyl)-2-(N-(4-chlorobenzyl)-(2,3,4,5,6-pentafluorophenyl)sulfonamido)-4-methylpentanamido)-2-hydroxybenzoic acid], in the series on MV4-11 cells, the IC50 lay within 5 to 10 µM.

For `C[C@@H](C(=O)N(Cc1cc(C2CC2)cc(C2CC2)c1)c1ccc(C(=O)O)cc1OC1CC1)N(Cc1ccc(F)cc1Cl)S(=O)(=O)c1c(F)c(F)c(F)c(F)c1F` [Compound 1006, (S)-4-(2-(N-(2-chloro-4-fluorobenzyl)-(2,3,4,5,6-pentafluorophenyl)sulfonamido)-N-(3,5-dicyclopropylbenzyl)propanamido)-3-cyclopropoxybenzoic acid], in the series with glutathione (GSH), the half-life at 25 μM was 2.37 to 9.23 h.

Consider `C[C@@H](C(=O)N(Cc1cc(C2CC2)cc(N2CCCC2)c1)c1ccc(C(=O)O)cc1C1CC1)N(Cc1ccc(F)cc1Cl)S(=O)(=O)c1c(F)c(F)c(F)c(F)c1F` [Compound 1008, (S)-4-(2-(N-(2-chloro-4-fluorobenzyl)-(2,3,4,5,6-pentafluorophenyl)sulfonamido)-N-(3-cyclopropyl-5-(pyrrolidin-1-yl)benzyl)propan-amido)-3-cyclopropylbenzoic acid], for which the half-life at 25 μM in the series on glutathione (GSH) lay in the range of 2.37 to 9.23 h.

Turning to `C[C@H](C(=O)N(Cc1cc(C2CC2)cc(N2CCCC2)c1)c1ccc(C(=O)O)cc1C1CC1)N(Cc1ccc(F)cc1Cl)S(=O)(=O)c1c(F)c(F)c(F)c(F)c1F` [Compound 1009, (R)-4-(2-(N-(2-chloro-4-fluorobenzyl)-(2,3,4,5,6-pentafluorophenyl)sulfonamido)-N-(3-cyclopropyl-5-(pyrrolidin-l-yl)benzyl)propan-amido)-3-cyclopropylbenzoic acid], the half-life at 25 μM in the series with glutathione (GSH) was in the range of 9.23 to 1670 h.
